The values that follow come from EP0006772A1, “Thieno and furopyridone derivatives, process for their preparation and medicinal preparations containing them” (OMNIUM FINANCIER AQUITAINE POUR L'HYGIENE ET LA SANTE - …, priority 1978, dated 1980).

The subject of experiment [1] is oedème généralisé à l'ovalbumine. Briefly: Ovalbumin-induced generalised oedema. The format is in vivo. The settings on record: po, rat, 100 mg/kg per os 1 h before and together with ovalbumin. The method, then:
Une injection intrapéritonéale simultanée de 1 ml d'ovalbumine et de 0,5 ml d'une solution aqueuse de bleu Evans à 1 % est effectuée sur le rat. D'autre part, on administre per os aux animaux du lot traité 100 mg/kg du dérivé à tester 1 heure avant et en même temps que l'ovalbumine. L'intensité du phénomène ainsi provoqué est notée par un chiffre allant de 1 à 5 suivant la progression du syndrome inflammatoire. On détermine ainsi la moyenne de l'intensité oedémateuse et le pourcentage de diminution de la réaction oedémateuse par rapport au témoin, en fonction du temps.
Les pourcentages d'activité anti-inflammatoire obtenus à la 2ème heure et 3ème heure après l'injection d'ovalbumine sont consignés dans le Tableau III suivant.

Experiment [2] has as its system oedème localisé provoqué par la carragénine. Put plainly: Carrageenan-induced localised paw oedema. The format is in vivo. As to conditions: rat, 100 mg/kg oral (1 h before, at injection, 1 h and 2.5 h after). The method, then:
Une solution de carragénine (0,1 ml) à 1 % est injectée dans les fléchisseurs métatarsiens de la patte postérieure droite du rat au temps O. Les animaux du lot traité reçoivent en outre, par la voie orale, 100 mg par kg du dérivé à tester respectivement 1 heure avant, en même temps que l'injection de l'agent phlogogène, puis 1 heure et 2 heures et demi après. Les mesures qui sont effectuées à l'aide du micromètre de ROCH aux temps 0, 1 heure, 2 heures, 3 heures et 5 heures après l'administration de la carragénine permettent de déterminer, en fonction du temps, le pourcentage d'activité anti-inflammatoire par comparaison avec le lot témoin.
For orientation: Carrageenan injected into the paw causes an acute inflammation.

For experiment [3], the system named is agrégation plaquettaire à l'A.D.P. Briefly: ADP-induced platelet aggregation in plasma of orally treated rats (ex vivo). Also noted: species or system rats de souche Wistar. The settings on record: Rattus norvegicus, 100 mg/kg oral, 3 hours after treatment, versus control, 10 µM A.D.P., read-out: Pourcentage d'inhibition A.D.P. The method, then: (§1) Chez des rats de souche Wistar, on effectue un prélèvement sanguin dans la veine jugulaire. A partir de ce sang citraté et après centrifugation, on reconstitue un plasma contenant 600 000 ± 20 000 plaquettes par mm^3, qui servira dans toutes les mesures d'agrégation.
(§2) On place 0,4 ml de plasma dans un tube siliconé pourvu d'une barre aimantée elle-même siliconée. Le tube est introduit dans un agrégomètre couplé à un appareil permettant d'enregistrer les variations de densité optique. Lorsque la transmission de la lumière a atteint une valeur stable, on introduit dans le tube 0,5 ml d'une solution contenant 10 µM d'A.D.P. (Adénosine-Di Phosphate).
(§3) L'agrégation des plaquettes provoque alors une augmentation de la transmission lumineuse suivie d'une diminution consécutive à la phase de désagrégation.
(§4) La variation maximale de densité optique ainsi déterminée caractérise l'intensité de l'agrégation.
(§5) Différents lots de 20 rats sont uiilisés, chaque lot recevant un dérivé à tester par la vcie orale, à la dose de 100 mg/kg de poids corporel. Les résultats obtenus au cours de ces 2 essais sont rapportés dans le Tableau I suivant qui indique le pourcentage d'inhibition de l'agrégation plaquettaire obtenu, par rapport au témoin, 3 heures après le traitement par le médicament de l'invention, dans le test de l'A.D.P. et au collagène.

Experiment [4] has as its system agrégation plaquettaire au collagène. Put plainly: Collagen-induced platelet aggregation in plasma of orally treated rats (ex vivo). Also noted: species or system rats de souche Wistar. The settings on record: Rattus norvegicus, 100 mg/kg oral, 3 hours after treatment, versus control, collagen (bovine tendon extract), read-out: Pourcentage d'inhibition Collagène. On the procedure:
as §1, §2, §3, §4
La solution d'A.D.P. est remplacée par une solution de collagène (extrait de tendons bovins).
as §5

Setting [5] is: 2 h after ovalbumin injection, read-out: Pourcentage d'activité anti-inflammatoire 2ème heure.
[6] abbreviates: 3 h after ovalbumin injection, read-out: Pourcentage d'activité anti-inflammatoire 3ème heure.
Where [7] appears, read: 1 h after carrageenan, read-out: pourcentage d'activité anti-inflammatoire Ière heure.
Where [8] appears, read: 2 h after carrageenan, read-out: pourcentage d'activité anti-inflammatoire 2ème heure.
Setting [9] is: 3 h after carrageenan, read-out: pourcentage d'activité anti-inflammatoire 3ème heure.
[10] abbreviates: 5 h after carrageenan, read-out: pourcentage d'activité anti-inflammatoire 5ème heure.

Where two headings read alike, the source gives them in different places.

Take `COc1ccc(-c2cc3sccc3c(=O)[nH]2)cc1` [dérivé 6, p-méthoxyphényl-6 thiéno(3,2-c)pyridone-4]: the inhibition in vivo at 100 mg/kg is 52% in experiment [1] (setting [5]); 58% in experiment [1] (setting [6]); 40% in experiment [2] (setting [7]); 43% in experiment [2] (setting [8]); 49% in experiment [2] (setting [9]); 52% in experiment [2] (setting [10]). Besides, the inhibition (commonly the drop in the measured response relative to a control, in per cent) at 100 mg/kg in experiment [3] worked out at 62.2%; in experiment [4], 91.7%.

With `Cc1ccc(-c2cc3sccc3c(=O)[nH]2)cc1` [dérivé 5, p-tolyl-6 thiéno(3,2-c)pyridone-4], the inhibition in vivo at 100 mg/kg in experiment [1] (setting [5]) worked out at 50%; in experiment [1] (setting [6]), 55%; in experiment [2] (setting [7]), 38%; in experiment [2] (setting [8]), 41%; in experiment [2] (setting [9]) it was 46%; in experiment [2] (setting [10]), 51%. Moreover, the inhibition at 100 mg/kg was found to be 62.6% in experiment [3] and 91.4% in experiment [4].

Take `O=c1[nH]c(-c2ccccc2Cl)cc2sccc12` [dérivé 3, o-chlorophényl-6 thiéno(3,2-c)pyridone-4]: the inhibition in vivo at 100 mg/kg in experiment [1] (setting [5]) worked out at 48%; in experiment [1] (setting [6]) it was 55%; in experiment [2] (setting [7]), 37%; in experiment [2] (setting [8]), 40%; in experiment [2] (setting [9]), 45%; in experiment [2] (setting [10]), 48%. The inhibition at 100 mg/kg in experiment [3] was 58.8%; in experiment [4], 92%.

Take `O=c1[nH]c(-c2ccc(Cl)cc2)cc2sccc12` [dérivé 4, p-chlorophényl-6 thiéno(3,2-c)pyridone-4]: the inhibition in vivo at 100 mg/kg in experiment [1] (setting [5]) turned out to be 47%; in experiment [1] (setting [6]), 53%; in experiment [2] (setting [7]), 41%; in experiment [2] (setting [8]), 44%; in experiment [2] (setting [9]) it was 48%; in experiment [2] (setting [10]), 52%. The inhibition at 100 mg/kg in experiment [3] worked out at 61.2%; in experiment [4], 90.5%.

Turning to `O=c1[nH]c(-c2ccccc2)cc2sccc12` [dérivé 1, Phényl-6 thiéno(3,2-c)pyridone-4], the inhibition in vivo at 100 mg/kg in experiment [1] (setting [5]) amounted to 45%; in experiment [1] (setting [6]), 52%; in experiment [2] (setting [7]), 35%; in experiment [2] (setting [8]), 39%; in experiment [2] (setting [9]), 45%; in experiment [2] (setting [10]), 49%. The values for the inhibition at 100 mg/kg in experiment [3] and in experiment [4] were 62% and 91.4%, respectively.

As for `O=c1[nH]c(-c2ccc([N+](=O)[O-])cc2)cc2sccc12` [dérivé 10, p-nitrophényl-6 thiéno(3,2-c)pyridone-4], the inhibition in vivo at 100 mg/kg came out at 49% in experiment [1] (setting [5]); 55% in experiment [1] (setting [6]); 41% in experiment [2] (setting [7]); 45% in experiment [2] (setting [8]); 51% in experiment [2] (setting [9]); 53% in experiment [2] (setting [10]). Besides, the inhibition at 100 mg/kg in experiment [3] is 60.4%; in experiment [4], 90.2%.

Turning to `COc1cc(-c2cc3sccc3c(=O)[nH]2)cc(OC)c1OC` [dérivé 8, (triméthoxy-3,4,5 phényl)-6 thiéno(3,2-c)py-ridone-4], the inhibition in vivo at 100 mg/kg in experiment [1] (setting [5]) is 46%; in experiment [1] (setting [6]) it was 53%; in experiment [2] (setting [7]), 36%; in experiment [2] (setting [8]), 39%; in experiment [2] (setting [9]), 45%; in experiment [2] (setting [10]), 59%. Besides, the inhibition at 100 mg/kg is 60.4% in experiment [3] and 92.2% in experiment [4].

Consider `COc1ccc(-c2cc3sccc3c(=O)[nH]2)cc1OC` [dérivé 7, (diméthoxy-3,4 phényl)-6 thiéno(3,2-c)pyrido-ne-4], for which the inhibition in vivo at 100 mg/kg in experiment [1] (setting [5]) came out at 48%; in experiment [1] (setting [6]) it was 55%; in experiment [2] (setting [7]), 40%; in experiment [2] (setting [8]) it was 44%; in experiment [2] (setting [9]) it was 48%; in experiment [2] (setting [10]), 51%. The inhibition at 100 mg/kg in experiment [3] amounted to 61.7%; in experiment [4], 90.6%.

Turning to `O=c1[nH]c(-c2cccc(C(F)(F)F)c2)cc2sccc12` [dérivé 11, m-trifluorométhylphényl-6 thiéno(3,2-c)pyri-done-4], the inhibition in vivo at 100 mg/kg stood at 51% in experiment [1] (setting [5]); 57% in experiment [1] (setting [6]); 40% in experiment [2] (setting [7]); 44% in experiment [2] (setting [8]); 49% in experiment [2] (setting [9]); 52% in experiment [2] (setting [10]). Moreover, the inhibition at 100 mg/kg was 60.1% in experiment [3] and 90.7% in experiment [4].
